Structures can show the parent of a compound that is named as a salt. Where two headings read alike, the source gives them in different places.
Experiments:
[1] = acute toxicity (72 hour LD50) in mice; conditions: mouse, in vivo, IP, read-out: 72 hour LD50 (95% Confidence Limits)
[2] = tested on: d-amphetamine lethality in mice; experiment: block of lethal effects of d-amphetamine in aggregated mice (modified procedure of Burn and Hobbs); assay type: in vivo; conditions: Mus musculus
Description: Intern. Pharmacodyn. 113: 290 (1958).
Effects of different pretreatment time intervals
on d-amphetamine lethality in mice

[3] = IP, mice, 1 hr. pretreatment, read-out: Protective ED50 (95% confidence limits)
[4] = IP, mice, 4 hrs. pretreatment, read-out: Protective ED50 (95% confidence limits)
[5] = IP, mice, 8 hrs. pretreatment, read-out: Protective ED50 (95% confidence limits)
[6] = IP, mice, 16 hrs. pretreatment, read-out: Protective ED50 (95% confidence limits)

Structure (SMILES) | LD50 at 72 h [1] | ED50 [2, 3] | ED50 [2, 4] | ED50 [2, 5] | ED50 [2, 6] | ED50 ([2]; ip, running text: administered I.P. in mice, after 16 hours, read-out: ED50)
O=C(c1ccc(F)cc1)C1CCN(CCCN2c3ccccc3Sc3ccc(C(F)(F)F)cc32)CC1 [Example 4, 2-Trifluoromethyl-10-[3-(4-p-fluorobenzoylpiperidinyl)propyl]phenothiazineFumarate] | 317 mg/kg | 1.44 mg/kg | 3.5 mg/kg | 1.4 mg/kg | 1.89 mg/kg | 
O=C(c1ccc(F)cc1)C1CCN(CCCN2c3ccccc3Sc3ccc(Cl)cc32)CC1 [Example 7, 2-Chloro-10-[3-(4-p-fluorobenzoylpiperidinyl)propyl] phenothiazine Hydrochloride Hydrate (1:4)] | 248 mg/kg | 0.17 mg/kg | 0.53 mg/kg | 0.19 mg/kg | 0.72 mg/kg | 0.72 mg/kg
CC(=O)c1ccc2c(c1)N(CCCN1CCC(C(=O)c3ccc(F)cc3)CC1)c1ccccc1S2 [Example 6, 2-Acetyl-10-[3-(4-p-fluorobenzoylpiperidiny)propyl] phenothiazine Difumarate Sesquihydrate] | 287 mg/kg | 0.14 mg/kg | 0.1 mg/kg | 0.06 mg/kg | 0.76 mg/kg | 
O=C(c1ccc(F)cc1)C1CCN(CCCN2c3ccccc3Sc3ccccc32)CC1 [Example 1, 10-[3-(4-p-Fluorobenzoylpiperidinyl)propyl]phenothiazine Fumarate Hydrate (1:4)] | 330 mg/kg | 0.94 mg/kg | 0.35 mg/kg | 1.27 mg/kg | 12.1 mg/kg | 

— US4021552A, “10-[ω-(BENZOYLPIPERIDINYL)ALKYL]PHENOTHIAZINES” (A. H. Robins Company, Incorporated, priority 1976, dated 1977)
